Data from patent publication US20190292243A1, “PEPTIDES AND METHODS OF USE THEREOF” (Fred Hutchinson Cancer Research Center, priority 2016, published 2019).
Square brackets hold non-standard residues; d marks the D form. Ends that are not written are not given here. Peptide text beside a SMILES is read from it. * marks the point of attachment. Dolaproine = CO[C@@H]([C@@H]1CCCN1)[C@@H](C)C(=O)O; Dil = CC[C@H](C)[C@H](NC)[C@@H](CC(=O)O)OC; X1 = C[C@@H](N*)[C@@H](O)c1ccccc1; NMeV = CN[C@H](C(=O)O)C(C)C

Assays:
RH28 flank tumors = experiment: Chirality in tumor homing, RH28 flank tumors (ex vivo IVIS); parameters: species or system mice; conditions: AF647 conjugates, 10 nmol per mouse intravenously, one hour
Procedure: This example illustrates the role of chirality in tumor homing peptides of this disclosure. Each L-enantiomer in a peptide of SEQ ID NO: 15 was replaced with the corresponding D-enantiomer (SEQ ID NO: 36). Both peptides were conjugated to AlexaFluor 647 and tumor homing, and homing to the liver and kidneys was assessed by fluorescence quantification. […] Peptide-AF647 conjugates were administered intravenously to mice bearing RH28 flank tumors at 10 nmol per mouse. Mice were euthanized one hour post-administration, organs were necropsied, and tissues were analyzed ex vivo using an IVIS imager. P-values were determined using an unpaired Student's t-test.

RH-28 tumor = experiment: Whole-body autoradiography after peptide-MMAE conjugate administration, RH-28 tumor; assay type: in vivo, female Harlan athymic mice; conditions: 14 nmol, 24 hours after administration
Excerpt: This example illustrates whole-body autoradiography and Caspase-3 staining after administration of peptide conjugated to MMAE. MMAE was conjugated to a peptide of SEQ ID NO: 26 with a Val-Cit-PABC linker to produce a SEQ ID NO: 26-B peptide conjugate (SEQ ID NO: 26-B). […]
At the end of the dosing period, mice were frozen in a hexane/dry ice bath and then frozen in a block of carboxymethylcellulose. […] Thin, frozen sections of mice were obtained with a microtome, allowed to desiccate in a freezer, and exposed to phosphoimager plates for about ten days.
These plates were developed, and the signal (densitometry) from each organ was normalized to the signal found in the heart blood of each mouse. A signal in tissue darker than the signal expected from blood in that tissue indicates peptide accumulation in a region, tissue, structure or cell.

[1] = test system: A375 cells and RH28 cells; experiment: Modulation of SEQ ID NO: 15-A accumulation in cells by small molecule drugs (flow cytometry median fluorescence); assay type: cell-based; conditions: drug at increasing concentrations with 1 μM SEQ ID NO: 15-A
Excerpt: This example illustrates the small molecule drug enhancing properties of peptides of this disclosure. Peptides of this disclosure were useful in enhancing or dampening the potency of several small molecule drugs. […] The Approved Oncology Drugs Plated Set VII was obtained from NCI and included histone deacetylase (HDAC) inhibitors such as vorinostat, belinostat, panobinostat, and […]. The tested set also included tyrosine kinase inhibitors, protease inhibitors, and anthracyclines. A375 cells and RH28 cells were plated at 10,000 cells per well in 96 well plates and allowed to adhere overnight. […] Cells were washed three times with PBS-FBS and once in PBS. Cells were trypsinized, resuspended in PBS-FBS-DAPI, and assessed for average fluorescence as compared to untreated cells by flow cytometry analysis. […] Cells were washed three times with PBS-FBS and once in PBS. Cells were trypsinized, resuspended in PBS-FBS-DAPI, and assessed for average fluorescence as compared to untreated cells by flow cytometry analysis.

RH28 cell line = experiment: Relative viability of RH28 cells; assay type: cell-based; conditions: various doses
Procedure: (§1) This example describes the viability different cell lines to MMAE or MMAE-peptide conjugates and toxicity induced by delivery of MMAE to cells by a peptide conjugate of the disclosure. A peptide of SEQ ID NO: 26 was expressed recombinantly or chemically synthesized and then conjugated to a therapeutic agent, MMAE, by a Val-Cit-PAB linker, producing SEQ ID NO: 26-B peptide conjugate (SEQ ID NO: 26-B). HeLa cells were treated in vitro with MMAE, SEQ ID NO: 26 peptide, or SEQ ID NO: 26-B, and viability was quantified. Ewing's Sarcoma cell lines including the RH28 cell line, A673 cell line, and A204 cell line, were treated in vitro with MMAE or SEQ ID NO: 26-B for 48-72 hours and viability of cells was quantified.

A673 cell line = experiment: Relative viability of A673 cells; assay type: cell-based; conditions: various doses
Procedure: as §1

[2] = test system: Caspase-3 activation in Ramos lymphoma tumor, liver, kidney; experiment: Caspase-3 staining of tissues after MMAE or peptide-MMAE conjugate; assay type: in vivo, female Harlan athymic mice; conditions: 7.5 nmol, 48 hours after single systemic administration
Procedure: This example illustrates whole-body autoradiography and Caspase-3 staining after administration of peptide conjugated to MMAE. MMAE was conjugated to a peptide of SEQ ID NO: 26 with a Val-Cit-PABC linker to produce a SEQ ID NO: 26-B peptide conjugate (SEQ ID NO: 26-B). 7.5 nmol MMAE or 7.5 nmol SEQ ID NO: 26-B were administered to RH-28 tumor-bearing or Ramos lymphoma tumor-bearing female Harlan athymic mice and allowed to freely circulate for 24 or 48 hours.

A204 cell line = experiment: Relative viability of A204 cells; assay type: cell-based; conditions: 48 hours after administration, various doses
Procedure: as §1

[3] = 72 hours of continuous treatment

Compound: GSSCEPGRTFRDRCNTCRCGADGRSAACTLRACPNQ (not fully specified (some residues); ends and bridges not checked) [SEQ ID NO: 15]
- homing to RH28 flank tumor (average radiant efficiency fluorescence), L- vs D-amino acid peptide (RH28 flank tumors): higher homing to flank tumor than a peptide of SEQ ID NO: 36

Compound: SEQ ID NO: 26-Br (GSSCEPGRTFRDRCNTCKCGADGRSAACTLRACPNQ; cysteine pairing not given here; also: conjugate Br)
- 14C signal distribution in tissues (autoradiography) (RH-28 tumor): accumulation in the RH-28 tumor

Compound: O=C(CCCCCCC(=O)Nc1ccccc1)NO [vorinostat]
- modulation of accumulation of SEQ ID NO: 15-A in tumor cells (median fluorescence vs untreated) [1]: modulate the accumulation of peptides of this disclosure to tumor cells

Compound: bleomycin
- modulation of accumulation of SEQ ID NO: 15-A in tumor cells (median fluorescence vs untreated) [1]: modulate the accumulation of peptides of this disclosure to tumor cells

Compound: SEQ ID NO: 26-B (GSSCEPGRTFRDRCNTCKCGADGRSAACTLRACPNQ; cysteine pairing not given here; also: conjugate B)
- relative viability / growth of RH28 cells (RH28 cell line; [3]): inhibited growth of both cell lines
- relative viability / growth of A673 cells (A673 cell line; [3]): inhibited growth of both cell lines

Compound: CC[C@H](C)[C@@H]([C@@H](CC(=O)N1CCC[C@H]1[C@H](OC)[C@@H](C)C(=O)N[C@H](C)[C@@H](O)c1ccccc1)OC)N(C)C(=O)[C@@H](NC(=O)[C@@H](NC)C(C)C)C(C)C [MMAE, monomethyl auristatin E] (H-[NMeV]V[Dil][Dolaproine]-X1)
- Caspase-3 staining in tumor, liver and kidney [2]: induction of apoptosis

Compound: Nc1ccn([C@@H]2O[C@H](CO)[C@@H](O)[C@@H]2O)c(=O)n1 [cytarabine]
- modulation of accumulation of SEQ ID NO: 15-A in tumor cells (median fluorescence vs untreated) [1]: modulate the accumulation of peptides of this disclosure to tumor cells

Compound: SEQ ID NO: 15-B (GSSCEPGRTFRDRCNTCRCGADGRSAACTLRACPNQ; cysteine pairing not given here; also: conjugate B)
- relative viability / growth of RH28 cells (RH28 cell line; 48 hours after administration): inhibited growth of all three cell lines
- relative viability / growth of A673 cells (A673 cell line; 48 hours after administration): inhibited growth of all three cell lines
- relative viability / growth of A204 cells (A204 cell line): inhibited growth of all three cell lines

Compound: Cn1c(=O)n(-c2ccc(C(C)(C)C#N)cc2)c2c3cc(-c4cnc5ccccc5c4)ccc3ncc21 [BEZ235]
- modulation of accumulation of SEQ ID NO: 15-A in tumor cells (median fluorescence vs untreated) [1]: modulate the accumulation of peptides of this disclosure to tumor cells
